Laboratory results published in publication PMC5458078, “Global mapping of CARM1 substrates defines enzyme specificity and substrate recognition” (Nature Communications, 2017).

Each substance was assayed on MCF7 cells (assay: Quantitative nanoLC-MS/MS (TMT) of ADMA-containing peptides, CARM1 KO vs parental). Settings: MCF7, CARM1 KO (KO1-KO3) vs wild type (WT1-WT3).
Format: cell-based, human
Design: Fold change KO/WT: scale not given here
“MGTPVPrPPQDMGQIGVrTPLGPRVAAPVGPVGPTPTVLPMGAPVPrPR” was tested, and the “Fold change KO/WT” value was -3.625.
With SVVESSAPGANNLQVNALVArLPLLLPR the “Fold change KO/WT” value was -2.

Same assay, conditions: MCF7, CARM1 KO vs WT, three biological replicates each
In the case of INPLPGGrNFSGTASTSLLGPPPGLLTPPVATELSQNAR, the “Fold change KO/WT” value is reported as -2.627.
AVDLTKPYQNQQLSIrVPLR was tested, and the “Fold change KO/WT” value was -2.685.
In the case of AGSQGGrGGGAQAAAR, the “Fold change KO/WT” value is reported as 0.4231.
In the case of RPAQSVNrGGMTR, the “Fold change KO/WT” value is reported as 0.2083.
With SVGQGYSVGQSMrLGLGGNAPVSIPQQSQSVK the “Fold change KO/WT” value was -2.576.
For QLrYQQPGPGSSPSSFLLK, the “Fold change KO/WT” value was -4.8874.
With SPYTTTrYGSPINTFTVrPGTR the “Fold change KO/WT” value was -3.428.

Same assay, conditions: MCF7, CARM1 knockout vs wild type, n = 3 each
In the case of GPGGPrGGLGGGMR, the “Fold change KO/WT” value is reported as 0.08213.
In the case of SGFAATSQPGPrLPFIQHSQNPrFYHK, the “Fold change KO/WT” value is reported as -3.247.
In the case of FGGPVHHQAQrFR, the “Fold change KO/WT” value is reported as -0.6051.
GPVTPGGLPPrGLLGDAPNDPR was tested, and the “Fold change KO/WT” value was -1.652.
With CAGFLEPTWLAAPPrLArPPrFYEAGEELTGPGAVAAAR the “Fold change KO/WT” value was -3.713.
In the case of GILPMNPrNMMNHSQVGQGIGIPSR, the “Fold change KO/WT” value is reported as -1.864.
In the case of KPLGTAPHCPrLPLRK, the “Fold change KO/WT” value is reported as -4.08.
In the case of SIVPTMHYQDSLPrLPIPK, the “Fold change KO/WT” value is reported as -2.513.
For “DYFPPGDFPGPPPAPFAMrNVYPPrGFPPYLPPrPGFFPPPPHSEGR”, the “Fold change KO/WT” value was -2.577.
For LSAETWDLLrLPLER, the “Fold change KO/WT” value was -3.314.
With “EGAEGVNGGEESVNLNDADEGFSSGASLSSQPIGTKPSSSSQrGSLR” the “Fold change KO/WT” value was -0.04765.
ELAPrAHVLSK was tested, and the “Fold change KO/WT” value was -2.404.

Same assay, conditions: MCF7 CARM1 knockout vs wild type, 3 biological replicates each; values are on log2 scale
For ASrGrGGLGPSWASANSGSGGSrGK, the “Fold change KO/WT” value was 0.06985.
In the case of MGAGMGFGLErMAAPIDR, the “Fold change KO/WT” value is reported as -3.039.
In the case of QALGSPLAGISTrLPGPGEPVPGPAGPAQFIELrHNVQK, the “Fold change KO/WT” value is reported as -2.458.
For VrLPCQPLVPGPELRPSAAELK, the “Fold change KO/WT” value was -2.704.
With APVFPGrGSYSNrGNYNR the “Fold change KO/WT” value was 0.06661.
AYGQQYWGQPGNrGGYrNFYDR was tested, and the “Fold change KO/WT” value was 0.1386.
For QTGSPGMIYSTrYGSPK, the “Fold change KO/WT” value was -3.282.
For LQGLQGSGGrGGGLR, the “Fold change KO/WT” value was -0.266.
For ACLTSGTPGPrAQLTAVTPDTR, the “Fold change KO/WT” value was -1.3764.
LYrYSPQSFLPDSTIQK was tested, and the “Fold change KO/WT” value was -2.857.
With AYGQQYWGQPGNrGGYRNFYDR the “Fold change KO/WT” value was 0.6249.
“GSQDSPAVPHPGPLQHWQPENVNQAFTrPPPPYPGNIrSPVAPPLGPrYAVFPK” was tested, and the “Fold change KO/WT” value was -2.234.

Each substance was assayed on MCF7 CARM1 KO cells (assay: Quantitative MS of ADMA-containing peptides in MCF7 CARM1 KO cells expressing CARM1 28-608 or CARM1 140-608, and in CARM1 KO). Settings: CARM1 140-608 vs WT, mean of 3 replicates (log2 scale).
Format: cell-based, human
For “MGTPVPrPPQDMGQIGVrTPLGPRVAAPVGPVGPTPTVLPMGAPVPrPR”, the “CARM1 140-608/WT” value was -2.791.
SVVESSAPGANNLQVNALVArLPLLLPR was tested, and the “CARM1 140-608/WT” value was -0.343.

Same assay, conditions: CARM1 140-608 vs WT, mean of 3 replicates, log2
For INPLPGGrNFSGTASTSLLGPPPGLLTPPVATELSQNAR, the “CARM1 140-608/WT” value was -1.005.
In the case of AVDLTKPYQNQQLSIrVPLR, the “CARM1 140-608/WT” value is reported as -2.717.
AGSQGGrGGGAQAAAR was tested, and the “CARM1 140-608/WT” value was 0.1432.
With RPAQSVNrGGMTR the “CARM1 140-608/WT” value was 0.0581.
For SVGQGYSVGQSMrLGLGGNAPVSIPQQSQSVK, the “CARM1 140-608/WT” value was -2.098.
With QLrYQQPGPGSSPSSFLLK the “CARM1 140-608/WT” value was -1.181.
With SPYTTTrYGSPINTFTVrPGTR the “CARM1 140-608/WT” value was -2.642.

Same assay, conditions: KO vs WT, mean of 3 replicates (log2 scale)
“MGTPVPrPPQDMGQIGVrTPLGPRVAAPVGPVGPTPTVLPMGAPVPrPR” gave a KO/WT of -3.834.
SVVESSAPGANNLQVNALVArLPLLLPR was tested, and the KO/WT was -2.6091.

Same assay, conditions: KO vs WT, mean of 3 replicates, log2
Substance INPLPGGrNFSGTASTSLLGPPPGLLTPPVATELSQNAR has a KO/WT of -2.627.
Work on AVDLTKPYQNQQLSIrVPLR yielded a KO/WT of -4.115.
AGSQGGrGGGAQAAAR gave a KO/WT of 0.7684.
RPAQSVNrGGMTR gave a KO/WT of 0.3659.
For SVGQGYSVGQSMrLGLGGNAPVSIPQQSQSVK, the KO/WT was -2.576.
QLrYQQPGPGSSPSSFLLK showed a KO/WT of -5.114.
Substance SPYTTTrYGSPINTFTVrPGTR has a KO/WT of -5.424.

Same assay, conditions: difference of log2 means, CARM1 140-608 vs WT
In the case of QALGSPLAGISTrLPGPGEPVPGPAGPAQFIELrHNVQK, the “CARM1 140-608/WT” value is reported as -1.36.
For VrLPCQPLVPGPELRPSAAELK, the “CARM1 140-608/WT” value was -1.578.
“GSQDSPAVPHPGPLQHWQPENVNQAFTrPPPPYPGNIrSPVAPPLGPrYAVFPK” was tested, and the “CARM1 140-608/WT” value was -1.013.

Same assay, conditions: difference of log2 means, KO vs WT
For QALGSPLAGISTrLPGPGEPVPGPAGPAQFIELrHNVQK, the KO/WT was -2.458.
VrLPCQPLVPGPELRPSAAELK was tested, and the KO/WT was -2.704.
For “GSQDSPAVPHPGPLQHWQPENVNQAFTrPPPPYPGNIrSPVAPPLGPrYAVFPK”, the KO/WT was -2.722.

Same assay, conditions: mean, CARM1 140-608 versus WT (log2 scale)
ASrGrGGLGPSWASANSGSGGSrGK was tested, and the “CARM1 140-608/WT” value was 0.01356.
For GPGGPrGGLGGGMR, the “CARM1 140-608/WT” value was 0.09567.
MGAGMGFGLErMAAPIDR was tested, and the “CARM1 140-608/WT” value was -2.085.
In the case of SGFAATSQPGPrLPFIQHSQNPrFYHK, the “CARM1 140-608/WT” value is reported as -0.6332.
KPLGTAPHCPrLPLRK was tested, and the “CARM1 140-608/WT” value was -2.5902.
With APVFPGrGSYSNrGNYNR the “CARM1 140-608/WT” value was 0.3143.
AYGQQYWGQPGNrGGYrNFYDR was tested, and the “CARM1 140-608/WT” value was -0.223.
LSAETWDLLrLPLER was tested, and the “CARM1 140-608/WT” value was -2.21.
In the case of QTGSPGMIYSTrYGSPK, the “CARM1 140-608/WT” value is reported as -2.435.
For LQGLQGSGGrGGGLR, the “CARM1 140-608/WT” value was 0.05748.
With ACLTSGTPGPrAQLTAVTPDTR the “CARM1 140-608/WT” value was -1.022.
With LYrYSPQSFLPDSTIQK the “CARM1 140-608/WT” value was -2.17.
In the case of AYGQQYWGQPGNrGGYRNFYDR, the “CARM1 140-608/WT” value is reported as -0.3814.
In the case of ELAPrAHVLSK, the “CARM1 140-608/WT” value is reported as -1.733.

Same assay, conditions: mean, CARM1 KO versus WT (log2 scale)
Substance ASrGrGGLGPSWASANSGSGGSrGK has a KO/WT of 0.5944.
GPGGPrGGLGGGMR showed a KO/WT of -0.1983.
For MGAGMGFGLErMAAPIDR, the KO/WT was -3.039.
SGFAATSQPGPrLPFIQHSQNPrFYHK showed a KO/WT of -3.722.
In the case of KPLGTAPHCPrLPLRK, the KO/WT is reported as -4.08.
With APVFPGrGSYSNrGNYNR the KO/WT was -0.1859.
AYGQQYWGQPGNrGGYrNFYDR showed a KO/WT of 0.1923.
LSAETWDLLrLPLER was tested, and the KO/WT was -3.314.
QTGSPGMIYSTrYGSPK showed a KO/WT of -3.403.
With LQGLQGSGGrGGGLR the KO/WT was -0.4598.
ACLTSGTPGPrAQLTAVTPDTR was tested, and the KO/WT was -1.3764.
In the case of LYrYSPQSFLPDSTIQK, the KO/WT is reported as -2.857.
In the case of AYGQQYWGQPGNrGGYRNFYDR, the KO/WT is reported as 1.342.
ELAPrAHVLSK was tested, and the KO/WT was -2.404.

Same assay, conditions: ratio on log2 scale, mean of 3 replicates
In the case of FGGPVHHQAQrFR, the “CARM1 140-608/WT” value is reported as -0.8111 and the KO/WT is reported as -0.6051.
For GPVTPGGLPPrGLLGDAPNDPR, the “CARM1 140-608/WT” value was -1.495 and the KO/WT was -1.652.
For CAGFLEPTWLAAPPrLArPPrFYEAGEELTGPGAVAAAR, the “CARM1 140-608/WT” value was -2.314 and the KO/WT was -3.713.
With GILPMNPrNMMNHSQVGQGIGIPSR the “CARM1 140-608/WT” value was -1.1659 and the KO/WT was -1.864.
With SIVPTMHYQDSLPrLPIPK the “CARM1 140-608/WT” value was -1.626 and the KO/WT was -2.513.
For “DYFPPGDFPGPPPAPFAMrNVYPPrGFPPYLPPrPGFFPPPPHSEGR”, the “CARM1 140-608/WT” value was -0.7489 and the KO/WT was -2.577.
With “EGAEGVNGGEESVNLNDADEGFSSGASLSSQPIGTKPSSSSQrGSLR” the “CARM1 140-608/WT” value was -0.2709 and the KO/WT was -0.04765.
